Laboratory results: ChEMBL document CHEMBL1129336, “Ryanodine action at calcium release channels. 2. relation to substituents of the cyclohexane ring” (J Med Chem, 1996)

Target: Ryanodine receptor 2 (Mus musculus) (UniProt E9Q401)
Assay: Displacement of [3H]ryanodine from ryanodine receptor(ryr) of Mouse brain

Ryanodine receptor 2 (Mus musculus), sequence (E9Q401 whole entry, looked up): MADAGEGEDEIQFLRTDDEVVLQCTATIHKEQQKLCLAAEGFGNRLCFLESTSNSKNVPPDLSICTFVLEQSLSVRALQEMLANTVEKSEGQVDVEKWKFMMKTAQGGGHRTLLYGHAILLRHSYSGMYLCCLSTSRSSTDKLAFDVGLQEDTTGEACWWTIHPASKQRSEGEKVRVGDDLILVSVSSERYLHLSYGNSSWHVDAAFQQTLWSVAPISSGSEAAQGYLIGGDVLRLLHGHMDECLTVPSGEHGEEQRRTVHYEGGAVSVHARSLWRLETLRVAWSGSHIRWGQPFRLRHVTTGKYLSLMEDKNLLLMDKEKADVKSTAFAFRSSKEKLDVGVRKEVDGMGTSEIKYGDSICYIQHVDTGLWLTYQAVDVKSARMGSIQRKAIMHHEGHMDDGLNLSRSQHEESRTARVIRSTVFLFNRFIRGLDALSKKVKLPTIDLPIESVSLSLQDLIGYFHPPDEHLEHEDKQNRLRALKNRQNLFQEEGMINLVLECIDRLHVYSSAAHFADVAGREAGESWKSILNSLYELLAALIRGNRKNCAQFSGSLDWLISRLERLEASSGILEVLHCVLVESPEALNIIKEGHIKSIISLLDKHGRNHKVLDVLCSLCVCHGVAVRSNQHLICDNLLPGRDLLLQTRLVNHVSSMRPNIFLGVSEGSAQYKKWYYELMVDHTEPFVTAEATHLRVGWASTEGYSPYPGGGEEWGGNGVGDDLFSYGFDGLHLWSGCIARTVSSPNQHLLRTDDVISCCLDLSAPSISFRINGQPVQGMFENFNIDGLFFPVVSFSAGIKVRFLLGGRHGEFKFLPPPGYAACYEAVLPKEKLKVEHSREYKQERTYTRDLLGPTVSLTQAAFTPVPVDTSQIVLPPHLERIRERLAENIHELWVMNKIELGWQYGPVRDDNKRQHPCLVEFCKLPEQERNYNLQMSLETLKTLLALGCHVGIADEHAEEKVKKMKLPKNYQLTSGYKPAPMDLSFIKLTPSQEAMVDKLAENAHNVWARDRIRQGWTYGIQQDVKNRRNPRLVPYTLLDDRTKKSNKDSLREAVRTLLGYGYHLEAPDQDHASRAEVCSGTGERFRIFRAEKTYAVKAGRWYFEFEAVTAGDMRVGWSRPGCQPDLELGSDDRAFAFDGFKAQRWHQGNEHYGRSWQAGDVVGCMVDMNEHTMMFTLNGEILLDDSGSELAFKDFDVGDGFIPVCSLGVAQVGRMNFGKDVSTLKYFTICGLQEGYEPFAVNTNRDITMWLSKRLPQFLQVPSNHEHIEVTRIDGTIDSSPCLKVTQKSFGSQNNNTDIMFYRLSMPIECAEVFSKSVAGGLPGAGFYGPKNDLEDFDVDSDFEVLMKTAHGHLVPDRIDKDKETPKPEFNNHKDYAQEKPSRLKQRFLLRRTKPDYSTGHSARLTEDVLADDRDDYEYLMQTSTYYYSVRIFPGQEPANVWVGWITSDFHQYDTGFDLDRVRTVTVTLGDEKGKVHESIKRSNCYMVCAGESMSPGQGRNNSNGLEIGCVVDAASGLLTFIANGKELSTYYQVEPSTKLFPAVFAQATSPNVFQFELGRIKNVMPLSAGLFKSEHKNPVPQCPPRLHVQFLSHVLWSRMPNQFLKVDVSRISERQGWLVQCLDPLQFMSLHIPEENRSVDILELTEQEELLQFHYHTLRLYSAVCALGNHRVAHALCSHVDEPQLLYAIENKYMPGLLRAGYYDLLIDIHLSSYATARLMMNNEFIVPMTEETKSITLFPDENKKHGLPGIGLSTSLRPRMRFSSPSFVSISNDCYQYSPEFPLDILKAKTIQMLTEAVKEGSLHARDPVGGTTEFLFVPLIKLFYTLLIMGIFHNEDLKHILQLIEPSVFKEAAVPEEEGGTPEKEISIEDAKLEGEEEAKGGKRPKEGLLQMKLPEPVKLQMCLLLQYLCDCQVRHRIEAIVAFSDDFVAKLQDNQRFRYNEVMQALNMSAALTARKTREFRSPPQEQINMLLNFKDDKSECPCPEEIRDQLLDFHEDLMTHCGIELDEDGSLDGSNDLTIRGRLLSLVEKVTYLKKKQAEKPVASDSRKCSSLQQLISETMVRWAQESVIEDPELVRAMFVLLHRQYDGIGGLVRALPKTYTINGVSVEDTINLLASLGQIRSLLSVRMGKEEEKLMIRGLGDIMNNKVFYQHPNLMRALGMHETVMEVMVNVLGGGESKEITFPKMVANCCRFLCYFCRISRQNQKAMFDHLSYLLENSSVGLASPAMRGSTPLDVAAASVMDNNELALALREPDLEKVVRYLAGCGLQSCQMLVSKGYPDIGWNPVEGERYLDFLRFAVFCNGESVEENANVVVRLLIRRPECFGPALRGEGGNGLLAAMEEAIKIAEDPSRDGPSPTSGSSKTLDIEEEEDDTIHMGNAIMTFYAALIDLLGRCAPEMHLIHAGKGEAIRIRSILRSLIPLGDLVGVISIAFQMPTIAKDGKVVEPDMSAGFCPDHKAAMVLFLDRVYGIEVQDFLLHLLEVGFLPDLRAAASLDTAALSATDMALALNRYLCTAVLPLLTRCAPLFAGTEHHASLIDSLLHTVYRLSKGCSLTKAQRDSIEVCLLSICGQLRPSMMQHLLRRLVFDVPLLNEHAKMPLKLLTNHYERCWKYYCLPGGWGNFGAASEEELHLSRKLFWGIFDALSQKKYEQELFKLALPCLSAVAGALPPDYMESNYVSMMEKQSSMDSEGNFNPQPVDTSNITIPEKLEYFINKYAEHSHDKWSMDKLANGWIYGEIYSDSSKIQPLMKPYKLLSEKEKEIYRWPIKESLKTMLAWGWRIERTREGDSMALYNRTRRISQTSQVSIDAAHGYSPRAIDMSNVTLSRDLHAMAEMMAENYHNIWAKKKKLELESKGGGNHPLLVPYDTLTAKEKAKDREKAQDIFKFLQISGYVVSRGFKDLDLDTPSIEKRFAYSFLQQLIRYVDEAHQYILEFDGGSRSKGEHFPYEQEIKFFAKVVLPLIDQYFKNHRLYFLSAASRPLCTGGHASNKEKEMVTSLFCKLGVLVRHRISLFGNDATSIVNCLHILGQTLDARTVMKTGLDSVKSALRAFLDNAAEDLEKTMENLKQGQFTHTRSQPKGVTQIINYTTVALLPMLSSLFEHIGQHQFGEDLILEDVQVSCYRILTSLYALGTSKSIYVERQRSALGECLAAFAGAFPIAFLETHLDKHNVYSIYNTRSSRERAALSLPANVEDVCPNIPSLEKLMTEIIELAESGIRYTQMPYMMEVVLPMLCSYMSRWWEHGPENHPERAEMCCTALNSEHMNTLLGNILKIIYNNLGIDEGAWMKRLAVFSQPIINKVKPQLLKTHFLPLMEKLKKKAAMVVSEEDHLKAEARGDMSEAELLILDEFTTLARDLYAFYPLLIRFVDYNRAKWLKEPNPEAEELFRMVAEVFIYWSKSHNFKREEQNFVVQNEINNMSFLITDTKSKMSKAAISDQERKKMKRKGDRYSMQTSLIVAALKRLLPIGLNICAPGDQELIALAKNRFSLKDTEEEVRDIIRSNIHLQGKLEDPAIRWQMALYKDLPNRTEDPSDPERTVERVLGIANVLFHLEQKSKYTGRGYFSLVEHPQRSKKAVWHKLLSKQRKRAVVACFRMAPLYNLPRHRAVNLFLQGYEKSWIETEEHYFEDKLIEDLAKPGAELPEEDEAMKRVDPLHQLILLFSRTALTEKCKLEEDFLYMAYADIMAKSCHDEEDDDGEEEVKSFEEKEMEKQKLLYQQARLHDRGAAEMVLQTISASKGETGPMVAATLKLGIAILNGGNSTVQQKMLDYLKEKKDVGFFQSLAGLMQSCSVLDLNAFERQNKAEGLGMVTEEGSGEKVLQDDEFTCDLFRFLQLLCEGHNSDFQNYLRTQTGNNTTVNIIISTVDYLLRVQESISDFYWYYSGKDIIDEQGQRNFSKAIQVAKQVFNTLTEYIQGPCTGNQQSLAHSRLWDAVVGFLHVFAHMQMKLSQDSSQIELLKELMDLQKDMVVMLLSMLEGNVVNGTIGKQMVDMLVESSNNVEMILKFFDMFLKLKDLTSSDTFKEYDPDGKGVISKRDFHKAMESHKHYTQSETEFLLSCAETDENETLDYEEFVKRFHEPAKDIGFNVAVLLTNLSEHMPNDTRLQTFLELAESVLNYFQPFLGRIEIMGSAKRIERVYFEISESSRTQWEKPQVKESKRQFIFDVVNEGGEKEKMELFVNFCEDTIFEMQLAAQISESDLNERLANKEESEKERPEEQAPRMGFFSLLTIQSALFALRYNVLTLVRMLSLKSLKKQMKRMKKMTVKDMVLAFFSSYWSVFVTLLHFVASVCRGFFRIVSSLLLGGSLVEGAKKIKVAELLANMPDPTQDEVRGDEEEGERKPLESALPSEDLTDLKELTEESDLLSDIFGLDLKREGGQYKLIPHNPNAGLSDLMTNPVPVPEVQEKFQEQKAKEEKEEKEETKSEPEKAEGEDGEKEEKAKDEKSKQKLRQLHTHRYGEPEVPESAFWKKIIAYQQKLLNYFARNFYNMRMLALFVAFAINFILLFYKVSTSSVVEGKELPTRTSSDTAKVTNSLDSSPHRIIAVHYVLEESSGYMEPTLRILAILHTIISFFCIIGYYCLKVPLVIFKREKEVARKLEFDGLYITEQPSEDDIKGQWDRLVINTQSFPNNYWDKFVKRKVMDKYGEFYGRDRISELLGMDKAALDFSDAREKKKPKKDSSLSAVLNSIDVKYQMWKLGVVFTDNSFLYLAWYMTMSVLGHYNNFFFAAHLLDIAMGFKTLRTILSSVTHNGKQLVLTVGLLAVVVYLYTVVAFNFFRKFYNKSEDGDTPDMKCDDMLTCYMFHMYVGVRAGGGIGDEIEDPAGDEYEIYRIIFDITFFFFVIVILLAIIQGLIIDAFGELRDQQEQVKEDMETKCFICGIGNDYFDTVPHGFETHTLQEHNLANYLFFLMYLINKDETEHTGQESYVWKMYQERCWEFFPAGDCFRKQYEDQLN

CO/N=C1\C(C)CCC2(O)C3(C)CC4(O)OC12C1(O)C3(O)C(OC(=O)c2ccc[nH]2)C(O)(C(C)C)C41C (stereo not given)
Relative activity: 13

CC1CCC2(O)C3(C)CC4(O)OC2(C1N)C1(O)C3(O)C(OC(=O)c2ccc[nH]2)C(O)(C(C)C)C41C (stereo not given)
Relative activity: 65

CC(C)C1(O)C(OC(=O)c2ccc[nH]2)C2(O)C3(C)CC4(O)OC5(CCCCC35O)C2(O)C41C (stereo not given)
Relative activity: 18

C=C1CCC2(O)C3(C)CC4(O)OC2(C1OC(=O)c1ccccc1)C1(O)C3(O)C(OC(=O)c2ccc[nH]2)C(O)(C(C)C)C41C (stereo not given)
Relative activity: 17

CC(C)C1(O)C(OC(=O)c2ccc[nH]2)C2(O)C3(C)CC4(O)OC5(CC(O)CCC35O)C2(O)C41C (stereo not given)
Relative activity: 0.4
